# Measured values taken from ChEMBL document CHEMBL1137032, “Nonpeptide alpha V beta 3 antagonists. Part 10: In vitro and in vivo evaluation of a potent 7-methyl substituted tetrahydro-[1,8]naphthyridine derivative” (Bioorg Med Chem Lett, 2004).
# Where “and” joins values, the source holds several entries; their conditions need not be identical. Equal values may be shown once.
# Experiments:
# [1] = Half life in dog; format: ADME, Canis lupus familiaris; conditions: in vivo
# [2] = Plasma clearance in dog; format: ADME, organism-based, Canis lupus familiaris; conditions: in vivo
# [3] = biological target: Integrin alpha-V/beta-3 (Homo sapiens) (UniProt P05106+P06756); experiment: In vitro binding affinity against integrin Alpha-v Beta3 receptor in SPA assay; format: protein-complex assay
# [4] = Human plasma binding affinity was determined; format: ADME, cell-free; conditions: read-out: PB (converted)
# [5] = Bioavailability in dog; format: ADME, organism-based, Canis lupus familiaris; conditions: in vivo
# [6] = Partition coefficient (logP); format: physicochemical; conditions: octanol/water
# [7] = Clearance value in rat; format: ADME, organism-based; conditions: in vivo
# [8] = Clearance value in dog; format: ADME, organism-based, Canis lupus familiaris; conditions: in vivo
# [9] = Bioavailability in rhesus monkey; format: ADME, organism-based; conditions: in vivo
# [10] = Clearance value in rhesus monkey; format: ADME, organism-based; conditions: cercopithecidae, in vivo
# [11] = Effect was measured in male rats on distal femoral metaphysis bone mineral density; format: ADME; conditions: rat
# [12] = Bioavailability in rat; format: ADME, organism-based; conditions: in vivo
# [13] = Bioavailability in rhesus Monkey; format: ADME, organism-based, Macaca mulatta; conditions: in vivo
# [14] = Plasma clearance in rhesus monkey; format: ADME, organism-based; conditions: cercopithecidae, in vivo
# [15] = Plasma clearance in rat; format: ADME, organism-based; conditions: in vivo
half-life [1] [h],clearance [2] [mL/min/kg],SPAV3 [3] [nM],fraction unbound [4],bioavailability [5] [%],logP [6],clearance [7] [mL/min/kg],clearance [8] [mL/min/kg],bioavailability [9] [%],clearance [10] [mL/min/kg],bioavailability [12] [%],bioavailability [13] [%],clearance [14] [mL/min/kg],clearance [15] [mL/min/kg],SMILES,DFMBMD [11]
2.2,18,0.13,0.22,55,0.62,–,–,–,–,–,–,–,–,COc1ccc([C@H](CC(=O)O)N2CCN(CCCc3nc4c(cc3C)CCCN4)C2=O)cn1,–
–,–,0.08,0.12,–,–,47,6.4,74,9,–,–,–,–,COc1ccc([C@H](CC(=O)O)N2CCN(CCCc3ccc4c(n3)NCCC4)C2=O)cn1,133 mg/Ecm and 145 mg/Ecm and 157.2 mg/Ecm
–,–,0.11,0.08,–,0.56,–,–,–,–,–,–,–,–,COc1ccc([C@H](CC(=O)O)N2CCN(CCCc3ccc4c(n3)N[C@H](C)CC4)C2=O)cn1,–
–,1.7,0.11,0.05,83,0.69,–,–,–,–,50,75,3.5,41,COc1ccc([C@H](CC(=O)O)N2CCN(CCCc3ccc4c(n3)N[C@@H](C)CC4)C2=O)cn1,137 mg/Ecm and 147.9 mg/Ecm and 161 mg/Ecm and 141.1 mg/Ecm and 156.6 mg/Ecm
